How the values were obtained:
[1] = MTT: Cell Damaging and Protecting Effect Test; format: cell-based, male Japanese White rabbit; conditions: rabbit, gastric mucosa cells, final concentration 10^-4 M, smaller value is better, read-out: cell damaging rate (MTT)
Excerpt: MTT: Cell Damaging and Protecting Effect Test
It is confirmed that there is no toxicity in cell level. Those having a toxicity in cell level are inappropriate as an anti-ulcer drug.
A male Japanese White rabbit (2.5 to 3 kg) was anesthetized to death by Nembutal™ and, immediately thereafter, its stomach was removed. The greater curvature of the stomach was incised so as to remove the stomach contents therefrom. After the mucosal surface was washed with HBSS (Hanks' Balanced Salt Solution), the stomach in ice-cooled HBSS was transferred to a laboratory. Then, after the pyloric antrum was removed, the gastric corpus mucosa was separated by a spatula and then minced into 2 to 3 mm^3 pieces in BME (Basal Medium Eagle). Thereafer, these pieces were shaken at 120 to 130 cycles/minute for 15 minutes at 37° C. in BME 60 ml containing 280 U/ml of dispase and 30 to 50 U/ml of collagenase. Here, the concentration of collagenase was appropriately changed for each lot in view of the state of cells. The pieces were washed twice with EBSS (Earle's Balanced Salt Solution) containing 1 mM of EDTA and then shaken in MEM (Minimum Essential Medium) containing 1 mM of EDTA at 37° C. for 5 minutes. Subsequently, they were shaken in the dispase and collagenase having the same concentrations as those mentioned above for 15 minutes so as to remove the supernatant and then further shaken at 37° C. for 50 to 60 minutes at 120 to 130 cycles/minute. Then, after being washed twice with HBSS, Ham F12 containing 2% of Ultrocer G™ was used to attain the concentration of 1×10^6 cells/ml. Thus formed suspension was dispensed in each well of a 96-well plate by 200 μl. The plate was incubated in the atmosphere composed of 5% CO2 and 95% air at 37° C. for three days so as to attain a confluent state and then subjected to MTT assay.
The sample compound was dissolved in DMSO so as to attain a concentration of 10^-2 M and then diluted with HBSS containing 2% of Ultrocer G™ so as to attain a final concentration of 10^-4 M. To each group, which 8 wells were used for, 10 μl of MTT reagent was added immediately after 100 μl of the medium in each well was exchanged for same volume of the resulting solution of the sample compound. After being incubated in an atmosphere composed of 5% CO2 and 95% air at 37° C. for 4 hours, thus formed solution was centrifuged and then its supernatant was discarded. Subsequently, 100 μl of 100% ethanol was added to the residue so as to dissolve MTT formazan. Then, the absorbance (OD: 570 to 630) was measured by a microplate reader. This method utilizes a phenomenon in which MTT is changed to MTT formazan only by mitochondria of living cells so as to change color.
The cell damaging or cell protecting effect of the sample compound at the final concentration of 10^-4 M was expressed as cell damaging rate (%) as follows:
cell damaging rate (%)=(1-(absorbance in sample group/absorbance in control group))×100
Accordingly, the smaller value is better in the cell damaging rate.

stress ulcer = assay: WIS: Restraint and Water Immersion Stress-Induced Ulcer Inhibition Test; format: in vivo, male Crj:SD or Slc:SD rats; conditions: rat, 100 mg/kg oral, 7 h water immersion stress; read-out: ulcer formation inhibitory rate (WIS)
Protocol: WIS: Restraint and Water Immersion Stress-Induced Ulcer Inhibition Test
The degree of inhibition of the stress ulcer formation is tested.
Male Crj:SD or Slc:SD rats (6 to 7-week-old) were fasted overnight, but allowed free access to water. Each group has 5 to 8 of these rats. The sample compound was dissolved or suspended in an aqueous solution of 0.3% sodium carboxymethylcellulose or 0.05% Tween 80 and then was orally administered (100 mg/10 ml/kg. To a control group, the vehicle was administered. 10 minutes later, the rats were placed in a stress cage and immersed to the level of xipfoid process in a water bath (21° C.) for 7 hours. At the end of the stress, the rats were sacrificed by inhalation of ether or carbon dioxide. Then, the stomach of each was removed, inflated by injecting 10 ml of 5% formalin neutral buffer solution, and immersed in 1% formalin neutral buffer solution for 30 minutes or more to be fixed. The stomach was incised along the greater curvature and then the length of each erosion in the glandular portion was determined under dissecting microscope. The sum of the length of erosions per stomach was defined as ulcer index (UI).
The effect obtained when 100 mg/kg of the sample compound had been administered was expressed as ulcer formation inhibitory rate (%) as follows:
ulcer formation inhibitory rate (%)=(1-(UI in sample group/UI in control group))×100

HP NCTC 11637 = assay: AHP: Antibacterial Activity Test Against Helicobacter pyroli (agar dilution MIC); format: cell-based; conditions: NCTC11637, 168 h, 7 days

Row | SMILES | cytotoxicity at 4 h, 100 µM [1] [%] | inhibition in vivo at 100 mg/kg (stress ulcer) [%] | MIC (HP NCTC 11637) [µg/mL]
1 | CCN1CCCC1CNC(=O)c1cc(OCC=C(C)C)ccc1OCC=C(C)C (stereo not shown) [Example 6, 1-ethyl-2-(2,5-diprenyloxybenzoylaminomethyl)pyrrolidine] | 34 | 84 | 
2 | CCN1CCCC1CNC(=O)c1ccc(OCC=C(C)C)c(OCC=C(C)C)c1 (stereo not shown) [Example 7, 1-ethyl-2-(3,4-diprenyloxybenzoylaminomethyl)pyrrolidine] | 28 | 92 | 
3 | CCN1CCCC1CNC(=O)c1cc(OC/C=C(\C)CCC=C(C)C)ccc1OC/C=C(\C)CCC=C(C)C (stereo not shown) [Example 10, 1-ethyl-2-(2,5-digeranyloxybenzoylaminomethyl)pyrrolidine] | 15 | 74 | < 3.13

Reference: patent US5925667A, “Pyrrolidine derivative, anti-ulcer drug, and antibacterial drug” (Shiseido Co., Ltd., priority 1997, dated 1999)
